Source: paper PMC5218480 (PLoS ONE, 2017)

Test system: MV-4-11 cells
Experiment: Gene expression microarray analysis (Affymetrix PrimeView) and GSEA
Type: cell-based, human
Parameters: RFU PODN (11730768_x_at) / Fold change /veh PODN (11730768_x_at) / RFU LINC00158 (11744669_a_at) / Fold change /veh LINC00158 (11744669_a_at) / RFU DUSP10 (11751237_a_at) / Fold change /veh DUSP10 (11751237_a_at) / RFU ID3 (11757404_x_at) / Fold change /veh ID3 (11757404_x_at) / RFU PLEKHG5 (11737974_s_at) / Fold change /veh PLEKHG5 (11737974_s_at) / RFU LRRC4B (11730491_at) / Fold change /veh LRRC4B (11730491_at) / RFU GIMAP4 (11747438_a_at) / Fold change /veh GIMAP4 (11747438_a_at) / RFU KRT8 (11758183_x_at) / Fold change /veh KRT8 (11758183_x_at) / RFU CNN1 (11734310_a_at) / Fold change /veh CNN1 (11734310_a_at) / RFU VPS37D (11726825_at) / Fold change /veh VPS37D (11726825_at) / RFU C10orf10 (11716522_x_at) / Fold change /veh C10orf10 (11716522_x_at) / RFU KIR2DL2 /// KIR2DL4 /// KIR2DL5A /// KIR2DL5B /// KIR2DS1 /// KIR2DS2 /// KIR2DS3 /// KIR2DS4 /// KIR3DL3 /// KIR3DL3 /// KIR3DS1 (11738374_at) / Fold change /veh KIR2DL2 /// KIR2DL4 /// KIR2DL5A /// KIR2DL5B /// KIR2DS1 /// KIR2DS2 /// KIR2DS3 /// KIR2DS4 /// KIR3DL3 /// KIR3DL3 /// KIR3DS1 (11738374_at) / RFU C1QL1 (11718748_at) / Fold change /veh C1QL1 (11718748_at) / RFU TMPRSS4 (11747572_a_at) / Fold change /veh TMPRSS4 (11747572_a_at) / RFU HAMP (11756126_x_at) / Fold change /veh HAMP (11756126_x_at) / RFU RNFT2 (11725882_a_at) / Fold change /veh RNFT2 (11725882_a_at) / RFU NR4A2 (11747474_a_at) / Fold change /veh NR4A2 (11747474_a_at) / RFU ABCC12 (11746883_a_at) / Fold change /veh ABCC12 (11746883_a_at) / RFU TMEM136 (11760407_x_at) / Fold change /veh TMEM136 (11760407_x_at) / RFU CLDN22 /// WWC2 (11732394_at) / Fold change /veh CLDN22 /// WWC2 (11732394_at) / RFU HLA-DPB1 (11760878_x_at) / Fold change /veh HLA-DPB1 (11760878_x_at) / RFU SPINT1 (11716480_a_at) / Fold change /veh SPINT1 (11716480_a_at) / RFU GAP43 (11754022_s_at) / Fold change /veh GAP43 (11754022_s_at) / RFU A4GNT (11735810_at) / Fold change /veh A4GNT (11735810_at) / RFU PRB3 (11715151_x_at) / Fold change /veh PRB3 (11715151_x_at) / RFU TUBB4B (11761932_at) / Fold change /veh TUBB4B (11761932_at) / RFU CAPN14 (11732068_a_at) / Fold change /veh CAPN14 (11732068_a_at) / RFU TMCC2 (11721928_a_at) / Fold change /veh TMCC2 (11721928_a_at) / RFU IRGQ (11745062_a_at) / Fold change /veh IRGQ (11745062_a_at) / RFU FAM174B (11720279_a_at) / Fold change /veh FAM174B (11720279_a_at) / RFU TMPRSS4 (11748680_a_at) / Fold change /veh TMPRSS4 (11748680_a_at) / RFU FAM212B (11763350_a_at) / Fold change /veh FAM212B (11763350_a_at) / RFU PLEKHG5 (11743358_a_at) / Fold change /veh PLEKHG5 (11743358_a_at) / RFU ZSCAN30 (11745921_a_at) / Fold change /veh ZSCAN30 (11745921_a_at) / RFU CMKLR1 (11741424_a_at) / Fold change /veh CMKLR1 (11741424_a_at) / RFU LOC101060620 /// MAPK8IP1 (11723275_at) / Fold change /veh LOC101060620 /// MAPK8IP1 (11723275_at) / RFU SPTSSB (11747773_x_at) / Fold change /veh SPTSSB (11747773_x_at) / RFU PRSS12 (11739890_at) / Fold change /veh PRSS12 (11739890_at) / RFU BIN1 (11741810_x_at) / Fold change /veh BIN1 (11741810_x_at) / RFU WNT11 (11732464_a_at) / Fold change /veh WNT11 (11732464_a_at) / RFU C10orf10 (11716521_a_at) / Fold change /veh C10orf10 (11716521_a_at) / RFU C5orf56 (11738089_at) / Fold change /veh C5orf56 (11738089_at) / RFU CYB561 (11721691_x_at) / Fold change /veh CYB561 (11721691_x_at) / RFU ANKRD19P (11752326_a_at) / Fold change /veh ANKRD19P (11752326_a_at) / RFU OR2T12 /// OR2T33 /// OR2T8 (11738714_s_at) / Fold change /veh OR2T12 /// OR2T33 /// OR2T8 (11738714_s_at) / RFU VCAN (11748164_a_at) / Fold change /veh VCAN (11748164_a_at) / RFU JSRP1 (11732532_at) / Fold change /veh JSRP1 (11732532_at) / RFU KRTAP10-11 (11738290_x_at) / Fold change /veh KRTAP10-11 (11738290_x_at) / RFU MYO3A (11730013_a_at) / Fold change /veh MYO3A (11730013_a_at) / RFU EBF3 (11725865_a_at) / Fold change /veh EBF3 (11725865_a_at) / RFU CAMK2N1 (11719241_x_at) / Fold change /veh CAMK2N1 (11719241_x_at) / RFU C5orf56 (11738088_a_at) / Fold change /veh C5orf56 (11738088_a_at) / RFU OLFML3 (11715873_a_at) / Fold change /veh OLFML3 (11715873_a_at) / RFU LOC100653217 /// NTM (11731650_a_at) / Fold change /veh LOC100653217 /// NTM (11731650_a_at) / RFU MAPK11 (11762145_a_at) / Fold change /veh MAPK11 (11762145_a_at) / RFU FIZ1 (11724087_x_at) / Fold change /veh FIZ1 (11724087_x_at) / RFU OASL (11726364_x_at) / Fold change /veh OASL (11726364_x_at) / RFU SOX15 (11748057_x_at) / Fold change /veh SOX15 (11748057_x_at) / RFU CD79A (11719716_a_at) / Fold change /veh CD79A (11719716_a_at) / RFU HIST1H1D (11736915_at) / Fold change /veh HIST1H1D (11736915_at) / RFU CASKIN2 (11723855_a_at) / Fold change /veh CASKIN2 (11723855_a_at) / RFU LOC730098 (11760151_x_at) / Fold change /veh LOC730098 (11760151_x_at) / RFU OR4N2 (11742367_at) / Fold change /veh OR4N2 (11742367_at) / RFU PRRT2 (11749266_a_at) / Fold change /veh PRRT2 (11749266_a_at) / RFU SNX32 (11753110_a_at) / Fold change /veh SNX32 (11753110_a_at) / RFU CDHR5 (11726645_a_at) / Fold change /veh CDHR5 (11726645_a_at) / RFU RCAN1 (11760418_a_at) / Fold change /veh RCAN1 (11760418_a_at) / RFU FAM167A (11723789_a_at) / Fold change /veh FAM167A (11723789_a_at) / RFU FAM26E (11764081_at) / Fold change /veh FAM26E (11764081_at) / RFU ISYNA1 (11749810_s_at) / Fold change /veh ISYNA1 (11749810_s_at) / RFU ACY1 (11761880_at) / Fold change /veh ACY1 (11761880_at) / RFU 11764098_at / Fold change /veh 11764098_at / RFU SAMD14 (11745864_x_at) / Fold change /veh SAMD14 (11745864_x_at) / RFU NPB (11741838_a_at) / Fold change /veh NPB (11741838_a_at) / RFU TMPRSS6 (11731388_a_at) / Fold change /veh TMPRSS6 (11731388_a_at) / RFU KRTAP10-2 (11738614_at) / Fold change /veh KRTAP10-2 (11738614_at) / RFU ARHGAP8 /// PRR5-ARHGAP8 (11727945_x_at) / Fold change /veh ARHGAP8 /// PRR5-ARHGAP8 (11727945_x_at) / RFU KRTAP5-7 /// NADSYN1 (11734609_at) / Fold change /veh KRTAP5-7 /// NADSYN1 (11734609_at) / RFU RASL12 (11751679_a_at) / Fold change /veh RASL12 (11751679_a_at) / RFU CDKN2B (11736163_a_at) / Fold change /veh CDKN2B (11736163_a_at) / RFU PRF1 (11729649_at) / Fold change /veh PRF1 (11729649_at) / RFU, ZNF638 /// ZNF638-IT1 / Fold change vs veh, ZNF638 /// ZNF638-IT1 / RFU, PANK3 / Fold change vs veh, PANK3 / RFU, SH3YL1 / Fold change vs veh, SH3YL1 / RFU, ZEB2 / Fold change vs veh, ZEB2 / RFU, NRIP1 / Fold change vs veh, NRIP1 / RFU, PTTG1IP / Fold change vs veh, PTTG1IP / RFU, CAPN2 / Fold change vs veh, CAPN2 / RFU, MED14 / Fold change vs veh, MED14 / RFU, SNORA58 / Fold change vs veh, SNORA58 / RFU, C1orf63 / Fold change vs veh, C1orf63 / RFU, LRRFIP1 / Fold change vs veh, LRRFIP1 / RFU, NDUFAF7 / Fold change vs veh, NDUFAF7 / RFU, SLC12A2 / Fold change vs veh, SLC12A2 / RFU, IBTK / Fold change vs veh, IBTK / RFU, ESF1 / Fold change vs veh, ESF1 / Fold change vs veh, TMEM50B / RFU, TAOK1 / Fold change vs veh, TAOK1 / RFU, ACBD3 / Fold change vs veh, ACBD3 / RFU, TMA16 / Fold change vs veh, TMA16 / RFU, RWDD3 / Fold change vs veh, RWDD3 / RFU, BCAT1 / Fold change vs veh, BCAT1 / RFU, EDEM3 / Fold change vs veh, EDEM3 / RFU, TMEM33 / Fold change vs veh, TMEM33 / RFU, WDR75 / Fold change vs veh, WDR75 / RFU, AHCTF1 / Fold change vs veh, AHCTF1 / RFU, TFRC / Fold change vs veh, TFRC / RFU, ZDHHC17 / Fold change vs veh, ZDHHC17 / RFU, NOM1 / Fold change vs veh, NOM1 / RFU, ARL8B / Fold change vs veh, ARL8B / RFU, ZBTB11 / Fold change vs veh, ZBTB11 / RFU, TAMM41 / Fold change vs veh, TAMM41 / RFU, KIAA1704 /// LOC100996395 / Fold change vs veh, KIAA1704 /// LOC100996395 / RFU, ING1 / Fold change vs veh, ING1 / RFU, TRMT61B / Fold change vs veh, TRMT61B / RFU, FUBP3 / Fold change vs veh, FUBP3 / RFU, TP53 / Fold change vs veh, TP53 / RFU, TNKS2 / Fold change vs veh, TNKS2 / RFU, ZFP14 / Fold change vs veh, ZFP14 / RFU, ACTR2 / Fold change vs veh, ACTR2 / RFU, PPP3R1 / Fold change vs veh, PPP3R1 / RFU, PIK3R1 / Fold change vs veh, PIK3R1 / RFU, HNRNPA1 / Fold change vs veh, HNRNPA1 / RFU, RNF170 / Fold change vs veh, RNF170 / RFU, ZNF28 / Fold change vs veh, ZNF28 / RFU, RNGTT / Fold change vs veh, RNGTT / RFU, OGT / Fold change vs veh, OGT / RFU, BRD1 / Fold change vs veh, BRD1 / RFU, MARS / Fold change vs veh, MARS / RFU, ZNF655 / Fold change vs veh, ZNF655 / RFU, FAHD1 / Fold change vs veh, FAHD1 / RFU, BDP1 / Fold change vs veh, BDP1 / RFU, LRRCC1 / Fold change vs veh, LRRCC1 / RFU, ARID1A / Fold change vs veh, ARID1A / RFU, ZNF146 / Fold change vs veh, ZNF146 / RFU, ZNF330 / Fold change vs veh, ZNF330 / RFU, GPN3 / Fold change vs veh, GPN3 / RFU, C9orf123 / Fold change vs veh, C9orf123 / RFU, N4BP2L2 / Fold change vs veh, N4BP2L2 / RFU, ARFIP1 / Fold change vs veh, ARFIP1 / RFU, FAM179B / Fold change vs veh, FAM179B / RFU, BCL10 / Fold change vs veh, BCL10 / RFU, UHRF1BP1L / Fold change vs veh, UHRF1BP1L / RFU, BET1 / Fold change vs veh, BET1 / RFU, CNOT2 / Fold change vs veh, CNOT2 / RFU, ZNF268 / Fold change vs veh, ZNF268 / Fold change vs veh, ZNF507 / RFU, DGCR2 / Fold change vs veh, DGCR2 / RFU, WDSUB1 / Fold change vs veh, WDSUB1 / Fold change vs veh, HSP90B1 /// MIR3652 / RFU, ADSS / Fold change vs veh, ADSS / RFU, GK / Fold change vs veh, GK / RFU, ZNF148 / Fold change vs veh, ZNF148 / RFU, TAF9 / Fold change vs veh, TAF9 / RFU, SLC1A5 / Fold change vs veh, SLC1A5 / RFU, SLMO2 / Fold change vs veh, SLMO2 / RFU, ABCC4 / Fold change vs veh, ABCC4 / RFU, LOC101060439 /// RAP1B / Fold change vs veh, LOC101060439 /// RAP1B / RFU, RFX7 / Fold change vs veh, RFX7 / RFU, GTPBP10 / Fold change vs veh, GTPBP10 / RFU, CNEP1R1 / Fold change vs veh, CNEP1R1 / RFU, BIVM-ERCC5 /// ERCC5 / Fold change vs veh, BIVM-ERCC5 /// ERCC5 / RFU, ILF3 / Fold change vs veh, ILF3 / RFU 11762660_at / Fold change /veh 11762660_at / RFU VCAN (11757783_s_at) / Fold change /veh VCAN (11757783_s_at) / RFU DDX43 (11728927_at) / Fold change /veh DDX43 (11728927_at) / RFU KRT8 (11758188_x_at) / Fold change /veh KRT8 (11758188_x_at) / RFU NKD1 (11759106_at) / Fold change /veh NKD1 (11759106_at) / RFU SRD5A1 (11742802_a_at) / Fold change /veh SRD5A1 (11742802_a_at) / RFU TPSAB1 /// TPSB2 (11721975_s_at) / Fold change /veh TPSAB1 /// TPSB2 (11721975_s_at) / RFU GSTM3 (11746129_a_at) / Fold change /veh GSTM3 (11746129_a_at) / RFU IL23R (11737362_x_at) / Fold change /veh IL23R (11737362_x_at) / RFU TMEM51 (11727254_a_at) / Fold change /veh TMEM51 (11727254_a_at) / RFU PIWIL2 (11732686_x_at) / Fold change /veh PIWIL2 (11732686_x_at) / RFU ORM1 (11744905_x_at) / Fold change /veh ORM1 (11744905_x_at) / RFU CCDC152 (11743942_at) / Fold change /veh CCDC152 (11743942_at) / RFU ECM1 (11717891_a_at) / Fold change /veh ECM1 (11717891_a_at) / RFU IL23R (11748794_a_at) / Fold change /veh IL23R (11748794_a_at) / RFU TNFAIP8L3 (11732012_x_at) / Fold change /veh TNFAIP8L3 (11732012_x_at) / RFU MBOAT4 (11741988_at) / Fold change /veh MBOAT4 (11741988_at) / RFU 11764193_at / Fold change /veh 11764193_at / RFU TMEM53 (11763286_at) / Fold change /veh TMEM53 (11763286_at) / RFU MAGEB2 (11727129_at) / Fold change /veh MAGEB2 (11727129_at) / RFU TMEM200A (11744735_a_at) / Fold change /veh TMEM200A (11744735_a_at) / RFU CCDC152 (11751479_a_at) / Fold change /veh CCDC152 (11751479_a_at) / RFU FAM211A (11726209_a_at) / Fold change /veh FAM211A (11726209_a_at) / RFU RGS16 (11746705_a_at) / Fold change /veh RGS16 (11746705_a_at) / RFU VCAN (11755009_s_at) / Fold change /veh VCAN (11755009_s_at) / RFU RHOB (11743442_s_at) / Fold change /veh RHOB (11743442_s_at) / RFU RGS16 (11720943_a_at) / Fold change /veh RGS16 (11720943_a_at) / RFU RGS16 (11720944_at) / Fold change /veh RGS16 (11720944_at) / RFU, VPS4B / Fold change vs veh, VPS4B / RFU, CREB1 / Fold change vs veh, CREB1 / RFU, DNAJC13 / Fold change vs veh, DNAJC13 / RFU, GNAQ / Fold change vs veh, GNAQ / RFU, CDK5R1 / Fold change vs veh, CDK5R1 / RFU, ZRANB3 / Fold change vs veh, ZRANB3 / RFU, CUL4A / Fold change vs veh, CUL4A / RFU, CCNY / Fold change vs veh, CCNY / RFU, UFL1 / Fold change vs veh, UFL1 / RFU, COG3 / Fold change vs veh, COG3 / RFU, DIAPH2 / Fold change vs veh, DIAPH2 / RFU, SKA2 / Fold change vs veh, SKA2 / RFU, AFF3 / Fold change vs veh, AFF3 / RFU, LMF1 / Fold change vs veh, LMF1 / RFU, IPO11 / Fold change vs veh, IPO11 / RFU, DFFB / Fold change vs veh, DFFB / RFU, FOXP1 / Fold change vs veh, FOXP1 / RFU, CARD8 / Fold change vs veh, CARD8 / RFU, STRN3 / Fold change vs veh, STRN3 / RFU, ADK / Fold change vs veh, ADK / RFU, RASSF2 / Fold change vs veh, RASSF2 / RFU, WIPF1 / Fold change vs veh, WIPF1 / RFU, LARP1B / Fold change vs veh, LARP1B / RFU, RASA1 / Fold change vs veh, RASA1 / RFU, RB1 / Fold change vs veh, RB1 / RFU, PPFIA1 / Fold change vs veh, PPFIA1 / RFU, MAT2A / Fold change vs veh, MAT2A / RFU, CCT5 / Fold change vs veh, CCT5 / RFU, WDR92 / Fold change vs veh, WDR92 / RFU, CUX1 / Fold change vs veh, CUX1 / RFU, TTC7A / Fold change vs veh, TTC7A / RFU, TMEM135 / Fold change vs veh, TMEM135 / RFU, DEPTOR / Fold change vs veh, DEPTOR / RFU, CPM / Fold change vs veh, CPM / RFU, DNAJB6 / Fold change vs veh, DNAJB6 / RFU, CACNA2D3 / Fold change vs veh, CACNA2D3 / RFU, DTX4 / Fold change vs veh, DTX4 / RFU, TFCP2 / Fold change vs veh, TFCP2 / RFU, GMCL1 /// GMCL1P1 / Fold change vs veh, GMCL1 /// GMCL1P1 / RFU, AEBP2 / Fold change vs veh, AEBP2 / RFU, SNHG1 /// SNORD22 /// SNORD25 /// SNORD26 /// SNORD27 /// SNORD28 /// SNORD29 /// SNORD31 / Fold change vs veh, SNHG1 /// SNORD22 /// SNORD25 /// SNORD26 /// SNORD27 /// SNORD28 /// SNORD29 /// SNORD31 / Fold change (Aza/veh), C12orf56 (ProbeSet 11735607_a_at) / Fold change (ACY-1035/veh), C12orf56 (ProbeSet 11735607_a_at) / Fold change (Aza/veh), FGFR1OP (ProbeSet 11751329_s_at) / Fold change (ACY-1035/veh), FGFR1OP (ProbeSet 11751329_s_at) / Fold change (Aza/veh), VPS36 (ProbeSet 11739960_a_at) / Fold change (ACY-1035/veh), VPS36 (ProbeSet 11739960_a_at) / RFU SYPL1 (11715823_x_at) / Fold change /veh SYPL1 (11715823_x_at) / RFU IGFBP7 (11715501_s_at) / Fold change /veh IGFBP7 (11715501_s_at) / RFU REEP3 (11722064_at) / Fold change /veh REEP3 (11722064_at) / RFU IGLL1 (11728026_x_at) / Fold change /veh IGLL1 (11728026_x_at): dose or concentration left out as unconfirmed
Conditions: ProbeSet 11743362_s_at; LIST B

Nc1ccc(-c2cccs2)cc1NC(=O)c1ccc2c(c1)cc(C1CC1)n2CCN1CCOCC1 [ACY-1035]
RFU, ADSS: 662.69 RFU
